Patent US4439448A, “Glutamine derivatives” (Mitsubishi Chemical Industries Ltd., priority 1980, dated 1984)

Legend:
[1] = system: plaque forming cells in the spleen of mice; experiment: TEST 2 effect on plaque forming cells in the spleen of mice inoculated with sheep red blood cells, Balb/c (Run 1); type: in vivo, mouse; settings: 4 weeks, intravascular sheep cells, four consecutive days
Method: (§1) Mice were inoculated by intravascular or intraperitoneal administration of 1×10^8 sheep cells per animal. Each group consisted of five mice. The test drug was administered orally or intraperitoneally for four consecutive days from the day when the sheep cells were administered.

[2] = system: plaque forming cells in the spleen of mice; experiment: TEST 2 effect on plaque forming cells in the spleen of mice inoculated with sheep red blood cells, C3H/He (Run 2); type: in vivo, mouse; settings: 7 weeks, I.P. sheep cells, four consecutive days
Method: as §1

[3] = system: delayed hypersensitibity; experiment: TEST 3 effects on delayed hypersensitivity (sheep red blood cell paw edema); type: in vivo, mice, ddY strain; settings: four consecutive days
Method: Into the palms of the right rear limbs of mice (ddY strain, weighing 25-30 g) was injected 40 μl of sheep red blood cells the concentration of which was adjusted to 1×10^7 /40 μl. The test drug was administered intraperitoneally or orally for four consecutive days inclusive of the day of sheep red blood cell administration. Three days after the day of sheep red blood cell administration, 40 μl of sheep red blood cells which were adjusted to have a concentration of 5×10^8 /40 μl were administered into the palms of the left rear limbs. After 24 hours, the thickness of the palms of the right and left rear limbs was measured. The edema was expressed as the difference in thickness between the palms of the left and right rear limbs. The results are shown in FIG. 3, in which the edema in the medicated group is expressed as percent control which means the percentage of the edema found in the group in which physiological saline is applied (control group).

[4] = system: six strains as stipulated in the Labor Safety and Hygiene Law in Japan; experiment: mutagenicity test using six strains; type: cell-based; settings: ~100 μg/plate
[5] = system: ddY mice; experiment: TEST 1 acute toxicity in mice; type: in vivo; settings: during 7 days after administration
Source text: The test drug was suspended in aqueous 50% solution of Tween 80 and administered to ddY mice weighing 20-25 g orally or intraperitoneally in doses indicated in Table 1 below.

[6] = system: rat adjuvant arthritis; experiment: TEST 4 effect on rat adjuvant arthritis; type: in vivo, Sprague-Dawley rats; settings: 27 consecutive days
Method: The test animals were Sprague-Dawley rats at the age of 8 weeks and each group consisted of ten animals. An intracutaneous injection of 0.05 ml of a suspension of 0.5 mg of Mycobacterium butyricum in liquid paraffin was applied to each animal at the paw of the right rear limb. For 27 consecutive days from the day before the adjuvant injection, Compound (2) was orally administered at doses of 3, 10 and 30 mg/kg with measurement of the volume of the paw.

Compound | % Control (edema, percentage of that in physiological saline control group) ([3]; 30 mg/kg I.P.) [%] | % Control (edema, percentage of that in physiological saline control group) ([3]; 100 mg/kg P.O.) [%] | No. of dead mice/No. of test animals ([5]; 1,000 mg/kg IP) | No. of dead mice/No. of test animals ([5]; 5,000 mg/kg PO) | % Control (edema, percentage of that in physiological saline control group) ([3]; 3 mg/kg I.P.) [%] | % Control (edema, percentage of that in physiological saline control group) ([3]; 10 mg/kg I.P.) [%] | % Control (edema, percentage of that in physiological saline control group) ([3]; 30 mg/kg P.O.) [%] | % Control (edema, percentage of that in physiological saline control group) ([3]; 300 mg/kg P.O.) [%] | further results
Cn1cnc([N+](=O)[O-])c1Sc1ncnc2nc[nH]c12 [Azathioprine, reference compound] | 61.0 | 58.2 |  |  |  |  |  |  | PFC × 2,500/spleen (Mean ± standard error) ([1]; 50 mg/kg P.O.): 22.8 ± 2.40 PFC × 2,500/spleen; PFC × 2,500/spleen (Mean ± standard error) ([2]; 50 mg/kg P.O.): 46.7 ± 1.2 PFC × 2,500/spleen
N-(4-Carboxymethylphenyl)-L-glutamine [Compound (2)] | 62.3 | 66.2 | 0/5 | 0/5 | 69.7 | 65.9 | 78.8 | 65.0 | mutagenicity [4]: negative in mutagenicity; PFC × 2,500/spleen (Mean ± standard error) ([1]; 30 mg/kg P.O.): 99.0 ± 4.60 PFC × 2,500/spleen; PFC × 2,500/spleen (Mean ± standard error) ([1]; 100 mg/kg P.O.): 91.8 ± 18.6 PFC × 2,500/spleen; PFC × 2,500/spleen (Mean ± standard error) ([1]; 300 mg/kg P.O.): 73.4 ± 12.7 PFC × 2,500/spleen; PFC × 2,500/spleen (Mean ± standard error) ([2]; 30 mg/kg P.O.): 113.0 ± 20.4 PFC × 2,500/spleen; PFC × 2,500/spleen (Mean ± standard error) ([2]; 100 mg/kg P.O.): 160.0 ± 20.6 PFC × 2,500/spleen; PFC × 2,500/spleen (Mean ± standard error) ([2]; 300 mg/kg P.O.): 152.4 ± 11.4 PFC × 2,500/spleen; action on secondary inflammations ([6]; 3, 10 and 30 mg/kg orally): exerted an inhibitory action on these secondary inflammations in every dose; dose dependency of action on secondary inflammations ([6]; 3, 10 and 30 mg/kg orally): any definite dose dependency was not appreciated; decrease in body weight accompanying secondary inflammations ([6]; orally): an improving tendency; inhibitory action on primary inflammations caused by direct reaction of the adjuvant ([6]; orally): very slight
N-(4-Ethoxycarbonylmethylphenyl)-L-glutamine [Compound (1)] | 91.7 | 76.4 | 0/5 | 0/5 | 85.2 | 78.2 | 85.7 | 74.5 | 
